According to PMC8421423, “Cellular model system to dissect the isoform-selectivity of Akt inhibitors” (Nature Communications, 2021):
Values joined by “and” are separate entries in the source; they are usually repeats but may differ in a detail not shown here. Equal entries are not always repeated. Where two headings read alike, the source gives them in different places.

How the values were obtained:
[1] = tested on: pAkt^S473 and downstream targets in Ba/F3 myr-Akt1; details: Ba/F3 myr-Akt1, 4-h treatment
Ba/F3^myr-Akt1 cells = test: CellTiter-Glo cell viability assay; details: for viability at 0.0001 µM: read-out: cell viability, CTG, myr-Akt1, 0.1 nM, single replicates; for viability at 5 µM: read-out: cell viability, CTG, myr-Akt1, 5000 nM, single replicates; for cell viability: CTG
Akt1 = Akt1 (Homo sapiens, UniProt P31749); test: STK HTRF KinEASE activity-based assay (IC50); details: biochemical activity based assay, log units
Akt1, sequence (P31749 whole entry): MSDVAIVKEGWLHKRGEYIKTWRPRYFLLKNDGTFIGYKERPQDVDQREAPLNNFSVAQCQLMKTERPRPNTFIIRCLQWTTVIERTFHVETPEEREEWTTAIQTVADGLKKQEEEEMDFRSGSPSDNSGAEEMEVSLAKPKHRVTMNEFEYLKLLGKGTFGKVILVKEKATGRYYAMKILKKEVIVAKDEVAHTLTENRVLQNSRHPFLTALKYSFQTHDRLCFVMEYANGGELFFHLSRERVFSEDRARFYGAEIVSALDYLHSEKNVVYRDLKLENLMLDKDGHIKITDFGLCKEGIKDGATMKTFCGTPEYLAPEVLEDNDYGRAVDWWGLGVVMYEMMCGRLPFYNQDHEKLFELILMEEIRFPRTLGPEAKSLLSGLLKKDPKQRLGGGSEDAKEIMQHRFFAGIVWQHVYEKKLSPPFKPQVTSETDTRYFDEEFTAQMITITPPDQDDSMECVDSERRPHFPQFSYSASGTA

Ba/F3^myr-Akt2 cells = test: CellTiter-Glo cell viability assay
Experimental: On day 0, cells were plated into white 384-well cell culture plates (Greiner Bio-One) using a Multidrop reagent dispenser (Thermo Fisher Scientific) at cell numbers that ensure linear and optimal luminescent signal intensity (Ba/F3myr-Akt1: 600 cells/well, Ba/F3myr-Akt2: 800 cells/well, Ba/F3myr-Akt3: 800 cells/well). […] Cell viability was analyzed on day 4 using the CellTiter-Glo Assay (Promega) as per the manufacturer’s instructions. […] All experimental points were measured in duplicates for each plate and were replicated in at least three plates.

Ba/F3^myr-Akt3 cells = test: CellTiter-Glo cell viability assay; details: for cell viability: CTG
[2] = CellTiter-Glo cell viability assay; format: cell-based, murine; details: mouse
parental Ba/F3 cells = test: CellTiter-Glo cell viability assay; format: cell-based, murine; details: for cell viability: CTG, parental
[3] = tested on: pAkt^S473 and downstream targets in Ba/F3 myr-Akt3; test: Western blot analysis, Ba/F3 myr-Akt3 cells; format: cell-based, murine; details: Ba/F3 myr-Akt3, 4-h treatment
Experimental: Cells were seeded into six-well tissue culture plates (Sarstedt) (BaF3 myr-Akt1/2/3: 10^6 cells/well, PANC1: 250.000 cells/well). After 24 h incubation, cells were treated with various concentrations of inhibitors or DMSO and incubated for additional 4.5 h before cells were washed twice with ice-cold PBS. Cell lysis was initiated by addition of 100 μL RIPA buffer (Cell Signaling Technology) per well supplemented with phosphatase and protease inhibitor cocktails (Sigma) followed by incubation on ice for 20 min. Cells were then harvested by scraping (PANC1) or centrifugation (BaF3). Whole cell lysates were cleared by centrifugation at 14,000×g/4 °C for 10 min and transferred into fresh, pre-cooled microcentrifuge tubes. Protein concentrations were determined using the Pierce BCA protein assay (Thermo) as per manufacturer’s instructions. Equal amounts of protein were separated by SDS-PAGE and transferred to Immobilon-FL PVDF membranes (Merck Millipore) using Pierce™ 1-step transfer buffer (Thermo) and the Pierce™ Power Blotter (Thermo). Membranes were washed for 5 min with ddH2O, blocked with Intercept®Blocking Buffer TBS (Li-Cor) for 1 h at room temperature, and then incubated with primary antibodies diluted in Intercept®Blocking Buffer TBS overnight at 4 °C with gentle agitation. […]

[4] = Mus musculus, read-out: CTG BaF3myr-Akt1, Mean, mean of replicates
[5] = Mus musculus, read-out: CTG BaF3myr-Akt1, individual determinations, single replicates
[6] = cell viability assay Ba/F3 myr-Akt cells, log units
[7] = read-out: CTG BaF3myr-Akt1, individual determinations, single replicates
[8] = Mus musculus, read-out: CTG BaF3myr-Akt2, Mean, mean of replicates
[9] = read-out: CTG BaF3myr-Akt2, individual determinations, single replicates
[10] = read-out: CTG BaF3myr-Akt3, individual determinations, single replicates
[11] = Mus musculus, BaF3, parental cells, mean of replicates, read-out: CTG BaF3, Mean
[12] = Mus musculus, BaF3, parental cells, single replicates, read-out: CTG BaF3, individual determinations
[13] = parental cells, single replicates, read-out: CTG BaF3, individual determinations

| SMILES | pAkt and downstream targets (immunoblot) [1] | EC50 (Ba/F3^myr-Akt1 cells; [4]) [µM] | EC50 (Ba/F3^myr-Akt1 cells; [5]) [µM] | viability at 0.0001 µM (Ba/F3^myr-Akt1 cells; Mus musculus) [%] | viability at 5 µM (Ba/F3^myr-Akt1 cells; Mus musculus) [%] | EC50 (Ba/F3^myr-Akt1 cells; [7]) | EC50 (Ba/F3^myr-Akt2 cells; [8]) [µM] | EC50 (Ba/F3^myr-Akt2 cells; [9]) | EC50 (Ba/F3^myr-Akt3 cells; [10]) | EC50 (parental Ba/F3 cells; [11]) [µM] | EC50 (parental Ba/F3 cells; [12]) [µM] | EC50 (parental Ba/F3 cells; [13]) | also measured |
| --- | --- | --- | --- | --- | --- | --- | --- | --- | --- | --- | --- | --- | --- |
| C=CC(=O)Nc1ccc2[nH]c(=O)n(C3CCN(Cc4ccc(-c5nc(C)c(=O)[nH]c5-c5ccccc5)cc4)CC3)c2c1 [15a, reference compound] | more potent towards myr-Akt1 than myr-Akt2 and myr-Akt3 | 7.21 | 7.37 | 107 | 72.2 | 7.33 µM and 7.9 µM and 6.25 µM | 14.9 | 13.5 µM and 21.4 µM and 14.1 µM and 10.4 µM | > 30 µM (2×) and 17.8 µM | > 30 | > 30 | > 30 µM | Log ratio EC50 [Akt] / EC50 [Akt], Akt1 / Akt2 (Ba/F3^myr-Akt1 cells; [6]): -0.31; Log ratio IC50 [Akt] / IC50 [Akt], Akt1 / Akt2 (Akt1): -2.52; viability at 0.0001 µM (Ba/F3^myr-Akt2 cells; Mus musculus, read-out: cell viability, CTG, myr-Akt2, 0.1 nM, single replicates): 100%; viability at 5 µM (Ba/F3^myr-Akt2 cells; Mus musculus, read-out: cell viability, CTG, myr-Akt2, 5000 nM, single replicates): 96.1%; EC50 (Ba/F3^myr-Akt3 cells; Mus musculus, read-out: CTG BaF3myr-Akt3, individual determinations, single replicates): > 30 µM; viability at 0.0001 µM (Ba/F3^myr-Akt3 cells; Mus musculus, read-out: cell viability, CTG, myr-Akt3, 0.1 nM, single replicates): 105%; viability at 5 µM (Ba/F3^myr-Akt3 cells; Mus musculus, read-out: cell viability, CTG, myr-Akt3, 5000 nM, single replicates): 99.8%; Log ratio EC50 [Akt] / EC50 [Akt], Akt3 / Akt2 (Ba/F3^myr-Akt3 cells; [6]): -0.26; viability at 3 days, 0.0001 µM ([2]; cell viability): 107%; EC50 (parental Ba/F3 cells; Mus musculus, BaF3, CTG, parental BaF3 cell line, read-out: EC50 BaF3): > 30 µM |
| C=CC(=O)Nc1ccc2[nH]c(=O)n(C3CCN(Cc4ccc(-c5[nH]c(=O)c(CC(C)C)nc5-c5ccccc5)cc4)CC3)c2c1 [16b, reference compound] | – | – | 29.7 | 99 | 102 | 29.8 µM and > 30 µM | – | – | > 30 µM and 24.5 µM and 11.4 µM | 20.1 | 21.6 | 15.9 µM and 22.9 µM | cell viability (Ba/F3^myr-Akt1 cells; myr-Akt1, 0.1 nM, single replicates, 0.0001 µM): 105.6 % of control; cell viability (Ba/F3^myr-Akt1 cells; myr-Akt1, 5000 nM, single replicates, 5 µM): 102.7 % of control and 99.1 % of control; pAkt and downstream targets (immunoblot) [3]: preferential binding; cell viability (Ba/F3^myr-Akt3 cells; myr-Akt3, 0.1 nM, single replicates, 0.0001 µM): 96.8 % of control; cell viability (Ba/F3^myr-Akt3 cells; myr-Akt3, 5000 nM, single replicates, 5 µM): 61.2 % of control; viability at 3 days, 5 µM ([2]; parental Ba/F3 cells, CTG, parental, 5000 nM, single replicates): 98%; cell viability (parental Ba/F3 cells; 0.1 nM, single replicates, 0.0001 µM): 102.9 % of control and 116.0 % of control and 91.9 % of control; cell viability (parental Ba/F3 cells; 5000 nM, single replicates, 5 µM): 99.0 % of control and 116.0 % of control |
| NC1(C(=O)N[C@@H](CCO)c2ccc(Cl)cc2)CCN(c2ncnc3[nH]ccc23)CC1 [Capivasertib, reference compound] | less effective | 1.07 | 1.29 | – | – | 0.706 µM and 1.2 µM and 1.1 µM | 0.938 | 1.07 µM and 0.6 µM | – | 16 | – | 11 µM and 13.9 µM and 23 µM | EC50 (Ba/F3^myr-Akt2 cells; Mus musculus, read-out: CTG BaF3myr-Akt2, individual determinations, single replicates): 1.14 µM |
